Assay: gradient 5% acetonitrile 3 min, to 50% in 2 min, to 85% in 15 min, held 3 min, 100 µL/min
Details: column: Zorbax Extend-C18 2.1 x 50 mm; eluents: water / acetonitrile, 0.1% formic acid
Outline: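 Each retention time is based on an adduct peak selected computationally and verified by manual inspection. Measurements used HPLC–quadrupole time-of-flight mass spectrometry in positive and negative ionization mode on mixtures of ~100 pure standards. Chromatography ran on a Zorbax Extend-C18 column (2.1 × 50 mm, 1.8 μm) at 100 μL/min with water and acetonitrile, each containing 0.1% formic acid, and dead and dwell volumes of 40 μL and 900 μL.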

Row | SMILES | RP-LC retention time
1 | CS(=O)(=O)Nc1ccc(C2(C(=O)NCc3cccc(Cl)c3)CCCCC2)cc1 | 948 s
2 | Cc1sc(NC(=O)c2ccccc2C(=O)O)nc1-c1ccccc1 | 855 s
3 | CCCCn1c(=O)c2ccccc2n(Cc2nc(-c3cccc(OC)c3)no2)c1=O | 1160 s
4 | Cc1nn(C)c(C)c1CNC(=O)C1CCN(c2cnn(Cc3ccccc3)c(=O)c2)CC1 | 654 s
5 | Cc1ccc(C)c(S(=O)(=O)N2CCCCCC2c2nnc(C)o2)c1 (stereo not drawn) | 908 s
6 | O=C(NCC(O)c1ccsc1)c1ccc2nsnc2c1 (stereo not drawn) | 659 s
7 | Cc1cccc(CNC2=NCCNC23CCN(S(=O)(=O)c2c(C)cc(C)cc2C)CC3)c1 | 846 s
8 | CC(NC(=O)C(=O)N1CCCCC1)C(c1cccs1)N1CCN(c2ccc(F)cc2)CC1 (stereo not drawn) | 760 s
9 | Cc1cc(C)n(-c2ccnc(N3CCC(C(=O)N4CCSCC4)CC3)n2)n1 | 854 s
10 | CN(CCNC(=O)C1=Cc2ccccc2OC1)C1CCCCC1 | 675 s
11 | CN(C)[C@@H]1CN(Cc2ccccc2C#N)C[C@H]1CO | 518 s
12 | Cc1ccc(Cn2nc3ccc(S(=O)(=O)N4CCCCCC4)cn3c2=O)cc1 | 1010 s
13 | CCN(CC)S(=O)(=O)N1CCC(C(=O)NCCN2CCOCC2)CC1 | 579 s
14 | COCC(=O)N[C@@H]1CN(C(=O)C2CC=CC2)CC[C@@H]1CO | 578 s
15 | Cc1ccc(C)c(NC(=O)c2cc(C)n3nc(C)cc3n2)c1 | 1090 s
16 | CN1CCC(N2CCN(S(=O)(=O)c3ccc(F)cc3)CC2)C1=O (stereo not drawn) | 552 s
17 | O=C(c1cccc(F)c1)N1CCN(c2cnn3c(C4CC4)nnc3c2)CC1 | 648 s
18 | O=C(NCCN1CCOCC1)c1ccc(-c2c(-c3ccc(F)cc3)ncn2C2CCCCC2)o1 | 605 s
19 | CN(C)C(=O)c1n[nH]c2c1CN(C(=O)c1ccccc1C(F)(F)F)CC2 | 725 s
20 | CN(CC1(C)CCOCC1)C(=O)NC1CCCCC1 | 749 s
21 | Cc1nc(C2CCCN2Cc2ccc(F)cc2F)n[nH]1 (stereo not drawn) | 560 s
22 | CCN(CC)CCNc1ncnc2c1cnn2-c1ccc(C)cc1 | 642 s
23 | COc1cccc(-c2nnc(Cc3nc(-c4cccs4)no3)o2)c1 | 929 s
24 | Cc1cc(C)cc(NC(=O)C2CCCN(c3nccnc3Sc3ccccc3)C2)c1 (stereo not drawn) | 1200 s
25 | Cc1ccc(C(=O)N2CCCCC2c2nncn2CC2CC2)cn1 (stereo not drawn) | 575 s
26 | Cc1ccccc1NC(=O)Cn1ccc2sccc2c1=O | 701 s

More lines, now with the values ahead:

Row | RP-LC retention time | SMILES
27 | 957 s | CCOC(=O)c1ccc(NC(=O)c2ccc3c(c2)N(CC)C2CCCCN2C3=O)cc1 (stereo not drawn)
28 | 899 s | Cc1sc(NC(=O)c2ccccc2F)nc1-c1ccc2c(c1)NC(=O)C(C)O2 (stereo not drawn)
29 | 928 s | CN(C)c1ccc(N2C=C(C(=O)N3CCCC3)S(=O)(=O)c3ccc(Cl)cc32)cc1
30 | 964 s | COc1ccccc1-c1noc(C2CCCN2C(=O)Nc2ccc(Br)cc2)n1 (stereo not drawn)
31 | 859 s | Cn1c(=O)n(CC(=O)N2CCOCC2)c(=O)c2cnc(-c3ccc(Cl)cc3)nc21
32 | 898 s | COc1ccc2cc(C(=O)Nc3ccccc3)[nH]c2c1
33 | 634 s | COc1ccc(Cl)c2c(=O)c3c([nH]c12)CCN(CC(=O)Nc1ccc(F)c(F)c1)C3
34 | 1010 s | COc1ccccc1NC(=O)N1CCCC1c1nc(-c2ccccc2)no1 (stereo not drawn)
35 | 746 s | Cc1ccc(CNC(=O)C2(C)CN(S(C)(=O)=O)CC(=O)N2c2ccc(F)cc2)cc1 (stereo not drawn)
36 | 651 s | COc1ccccc1N1CCN(C(=O)c2cc3c(=O)n(C)ccc3n2C)CC1
37 | 1030 s | Cc1ccc(C(=O)Nc2nc(-c3ccc4c(c3)N(C)C(=O)CO4)c(C)s2)cc1
38 | 1140 s | CCc1nc(-c2csc(S(=O)(=O)N3CCC(C(=O)Nc4ccc(C(C)C)cc4)CC3)c2)no1
